The text below walks through data of publication PMC7306898, “Concentration-Dependent Activity of Hydromethylthionine on Clinical Decline and Brain Atrophy in a Randomized Controlled Trial in Behavioral Variant Frontotemporal Dementia” (Journal of Alzheimer's Disease, 2020).

Like-named read-outs stand apart in the source and are kept apart here.

The test system of series [1] is bvFTD patients. As to the kind of experiment: MMSE, 52-week Phase III trial. It is filed as in vivo, human. From the text: (§1) The two doses were provided in identical blister packages as visually identical oral tablets to be taken for up to 52 weeks. The primary outcome was the Addenbrookes Cognitive Examination – Revised (ACE-R). The Functional Activities Questionnaire (FAQ) and reduction in progression of whole brain atrophy were alternative co-primary outcomes. Other outcomes included: Modified Alzheimer’s Disease Cooperative Study – Clinical Global Impression of Change (Modified-CGIC) determined by a third independent rater; Frontotemporal Dementia Rating Scale (FRS); MMSE (from MMSE items incorporated into ACE-R); Addenbrookes Cognitive Examination – III (a revised version of ACE-R which excludes MMSE items subject to copyright restrictions); change in brain volume measured by MRI in frontal and temporal lobes (FTV) and lateral ventricles (LVV); and the effect of hydromethylthionine in patients with known genetic mutations associated with bvFTD. Blood was collected prospectively for the purpose of population PK analyses.
The primary analyses were specified as a mixed model, repeated-measures analysis with an unstructured covariance matrix and no imputation for missing data. […]

On the set-up of series [2]: method as in PMID 31658058. To be noted: cited from earlier work.
The subject of series [3] is bvFTD patients. As to the kind of experiment: Functional Activities Questionnaire (FAQ), 52-week Phase III trial. The class given is in vivo, human.
Excerpt: The study was designed as a 52-week Phase III, randomized, controlled, double-blind, parallel-group trial conducted between May 2013 and February 2016 at 70 sites in Canada, United States, Australia, Asia, and Europe. Eligible patients had to be younger than 80 years of age with a diagnosis of bvFTD according to criteria revised by the International bvFTD Criteria Consortium [[1, 50]], with Mini-Mental Status Examination (MMSE) score greater than or equal to 20 at screening. In order to limit inclusion of bvFTD phenocopy cases, there was an additional requirement that patients had to meet the criterion of having definite brain atrophy in frontal and/or temporal lobes scoring 2 or more on a scale previously developed by Kipps et al.. Concomitant use of acetylcholinesterase inhibitors (AChEIs) or memantine (or both) was permitted provided this was at a stable dose for at least 18 weeks before randomization to minimize any potential early symptomatic effects of these treatments. Concomitant use of antidepressant, antipsychotic (except clozapine or olanzapine), and sedative medications was also permitted at stable doses where clinically feasible. Each patient had one or more study partners participate with them in the trial as informants. […] A detailed list of inclusion and exclusion criteria is in the protocol provided in the Supplementary Material. […]
as §1, with “The primary outcome was the Addenbrookes Cognitive Examination – Revised (ACE-R). The Functional Activities Questionnaire (FAQ) and reduction in progression of whole brain atrophy were alternative co-primary outcomes.” left out, “Blood was collected prospectively for the purpose of population PK analyses.” left out

The nature of series [4]: Population PK: plasma-modeled parent MT Cmax,ss. It is filed as in vivo, human. To be noted: for Cmax: both sexes, human, plasma, oral. How it is done:
Blood samples for assessment of parent MT, N-desmethyl MT, and total MT (sum of parent MT and a labile LMT conjugate), were collected from each patient on the first treatment visit (two samples: pre-dose and approximately 3.5 h after the dose) and at each subsequent on-treatment visit. The protocol specified that PK plasma sampling was to be conducted only at sites with adequate facilities (i.e., a refrigerated centrifuge and adequate capability to freeze samples reliably). Blinded analyses were conducted at the University of Aberdeen GLP Test Facility. MT levels in plasma were measured using liquid chromatography-tandem mass spectrometry assay. The method was validated for use in the Phase III studies over the range 0.2 to 10 ng/ml. […] Model development and estimation of steady state maximum plasma concentration (Cmax,ss) were determined independently by the Institute of Clinical Pharmacodynamics (ICPD, NY, USA). Cmax,ss estimates using a model validated in Phase I studies were based on in-clinic plasma concentration data obtained on Day 1 when the dose-sampling interval was accurately recorded. The percentage of patients with Day 1 exposure levels below the lower calibration limit of the assay was used to define a proxy for placebo in post-hoc binary statistical comparisons of patients with low and high exposure to the drug with a view to informing the design of a future placebo-controlled trial. Change in ACE-R, ACE-III, FAQ, MMSE, Modified-CGIC, FRS, whole brain volume (WBV), lateral ventricular volume (LVV), and frontotemporal volume (FTV), as well as UPDRS Part III, were expressed as a function of Cmax,ss estimates grouped into four groups described in the results section. Cmax,ss values outside 3x the interquartile range were excluded from determination of concentration-response relationships, but were included in inferential statistical analyses.

Another series deals with red blood cells. Conditions: cited from earlier work.

Take `CN(C)c1ccc2c(c1)Sc1cc(N(C)C)ccc1N2` [hydromethylthionine, leuco-methylthioninium bis(hydromethanesulphonate)]: the “MMSE: Decline±SEM for LMTM 8 mg/day group” value in the series on bvFTD patients [1] (8 mg/day (n = 110), modeled change from baseline at 52 weeks) is recorded as “–3.41±0.53”. For the same compound, in the series with bvFTD patients [1] (200 mg/day (n = 104) vs 8 mg/day, 52 weeks), the “MMSE: Difference±SEM from LMTM 8 mg/day for 200 mg/day” value is “–0.12±0.80”. For the same compound, the “brain:plasma ratio compared to MTC” value in series [2] is at least 60 fold. In addition, the “FAQ: Decline±SEM for LMTM 8 mg/day group” value in the series with bvFTD patients [3] (8 mg/day (n = 110), modeled change from baseline at 52 weeks, MITT) amounted to 5.51±0.55. Moreover, the “reduction in decline on the FAQ scale” value in the series on bvFTD patients [3] (8 mg/day, plasma levels above vs below […] threshold) amounted to 46%. The “FAQ: Difference±SEM from LMTM 8 mg/day for 200 mg/day” value in the series with bvFTD patients [3] (200 mg/day (n = 104) vs 8 mg/day, 52 weeks, MITT) was “–0.39±0.84”. Further, the “Plasma-modeled parent MT Cmax,ss, Range” value in series [4] (200 mg/day) fell in the range of 6.800 to 14.235 ng/mL. The “plasma levels at 200 mg/day relative to the highest level seen at 8 mg/day” value in series [4] (80 patients receiving 200 mg/day) is given as 16 fold. Besides, the Cmax in series [4] (8 mg/day, 8 mg/day – Group 1, read-out: Plasma-modeled parent MT Cmax,ss, Mean (SD)) is 0.321 ng/mL; in series [4] (8 mg/day, 8 mg/day – Group 1, read-out: Plasma-modeled parent MT Cmax,ss, Range) it was 0.281 to 0.346 ng/mL; in series [4] (8 mg/day, 8 mg/day – Group 2, read-out: Plasma-modeled parent MT Cmax,ss, Mean (SD)) it was 0.355 ng/mL; in series [4] (8 mg/day, 8 mg/day – Group 2, read-out: Plasma-modeled parent MT Cmax,ss, Range) it was 0.346 to 0.372 ng/mL; in series [4] (8 mg/day, 8 mg/day – Group 3, read-out: Plasma-modeled parent MT Cmax,ss, Mean (SD)), 0.387 ng/mL; in series [4] (8 mg/day, 8 mg/day – Group 3, read-out: Plasma-modeled parent MT Cmax,ss, Range), 0.373 to 0.409 ng/mL. In addition, the Cmax in series [4] (8 mg/day, 8 mg/day – Group 4, read-out: Plasma-modeled parent MT Cmax,ss, Mean (SD)) is 0.47 ng/mL; in series [4] (8 mg/day, 8 mg/day – Group 4, read-out: Plasma-modeled parent MT Cmax,ss, Range) it was 0.413 to 0.583 ng/mL; in series [4] (200 mg/day, read-out: Plasma-modeled parent MT Cmax,ss, Mean (SD)), 9.04 ng/mL; in series [4] (200 mg/day, read-out: Plasma-modeled parent MT Cmax,ss, Range) it was 6.8 to 14.2 ng/mL. The “efficiency of uptake into red blood cells relative to MTC” value with red blood cells was 20 fold.

By Cmax is commonly meant the peak of the concentration-time curve.
